From patent publication US11534457B2, “Use of dextran sulfate” (priority 2017, dated 2022)

Test system: severe traumatic brain injury (sTBI)
Assay: sTBI in rats, brain gene expression arrays and pathway analysis (Example 9)
Format: in vivo, Male Wistar rats
Design: key to z score, canonical pathway Dendritic Cell Maturation / z score, canonical pathway Adrenomedullin Signaling pathway / z score, canonical pathway Endothelin-1 Signaling / effect on canonical pathway Adrenomedullin Signaling pathway / effect on canonical pathway Endothelin-1 Signaling / effect on canonical pathway Dendritic Cell Maturation / Ingenuity canonical pathway Adrenomedullin signaling pathway, z score / Ingenuity canonical pathway FLT3 Signaling in Hematopoietic Progenitor Cells, z score / Ingenuity canonical pathway Opioid Signaling Pathway, z score / Ingenuity canonical pathway VDR/RXR Activation, z score / Ingenuity canonical pathway Neuropathic Pain Signaling In Dorsal Horn Neurons, z score / Ingenuity canonical pathway STAT3 Pathway, z score / Ingenuity canonical pathway IL-1 Signaling, z score / Ingenuity canonical pathway IL-6 Signaling, z score / Ingenuity canonical pathway NF-κB Signaling, z score / Ingenuity canonical pathway Role of NFAT in Cardiac Hypertrophy, z score / Ingenuity canonical pathway PPARα/RXRα Activation, z score: *: ambiguous effect
Settings: for effect of TBI on molecular processes and diseases: given 30 minutes after injury; for TBI-induced alterations in neurodegeneration and scarring-related canonical pathways: given within 30 minutes of TBI
Description: The experimental protocol used in this study was approved by the Ethical Committee of the Catholic University of Rome, according to international standards and guidelines for animal care. Male Wistar rats of 300-350 g body weight were fed with standard laboratory diet and water ad libitum in a controlled environment. As the anesthetic mixture, the animals received 35 mg/kg b.w. ketamine and 0.25 mg/kg body weight midazolam by i.p. injection. Severe traumatic brain injury (sTBI) was induced by dropping a 450 g weight from 2 m height on to the rat head that had been protected by a metal disk previously fixed on the skull, according to the “weight drop” impact acceleration model (Marmarou et al., A new model of diffuse brain injury in rats. Part I: Pathophysiology and biomechanics. J Neurosurg. 1994; 80: 291-300). […] At the end of each period of treatment, rats were anesthetized again and then immediately sacrificed.
LMW-DS (Tikomed AB) was provided at a stock concentration of 20 mg/ml and was kept in a temperature-monitored refrigerator at 4° C. LMW-DS aliquots were diluted to the appropriate dosing concentration in sterile saline prior to delivery of a single subcutaneous injection.
Three doses of LMW-DS were administered subcutaneously 30 minutes post-TBI. The animals were sacrificed at 2 days post-TBI. The animals were divided into the following subgroups:
Three doses of LMW-DS were administered subcutaneously 30 minutes post-TBI. The animals were sacrificed at 7 days post-TBI. The animals were divided into the following subgroups:
An in vivo craniectomy was performed on all animals during anesthesia. After carefully removing the rat's skull, the brain was exposed and removed with a surgical spatula and quickly dropped in RNALater and preserved at 4° C. for further processing.
RNA extraction and array processing was carried out by SourceBioscience. The arrays used were the Agilent Rat expression arrays.
Statistical analysis was carried out using the Metaboanalyst software package. Gene expression changes of 10% with a p<0.05 were regarded as significant.
Pathway analysis of the differentially regulated genes was carried out using the Ingenuity pathway analysis package. The analysis was performed with special reference to pathways and molecular processes and diseases associated with neurodegenerative disease, including dementia, Alzheimer's disease, ALS, TBI and stroke, and with scarring and fibrosis, including glaucoma and normal pressure hydrocephalus (NPH) after subarachnoid haemorrhage.

[1] = TBI + 15 mg/kg repeat dose LMW-DS, after 7 days, TBI: Inhibited
[2] = TBI + 15 mg/kg repeated dose LMW-DS, 7 days after TBI
[3] = TBI + 15 mg/kg repeated dose LMW-DS, 7 days after TBI, relative to control

Substance: low molecular weight dextran sulfate [LMW-DS]
- Diseases or functions annotation: Differentiation of bone cells [1]: Inhibited
- Diseases or functions annotation: Differentiation of connective tissue cells [1]: Inhibited
- Diseases or functions annotation: Digestive system cancer [1]: Inhibited
- Diseases or functions annotation: Epithelial neoplasm [1]: Inhibited
- Diseases or functions annotation: Formation of cellular protrusions [1]: Activated
- Diseases or functions annotation: Formation of intercellular junctions [1]: Activated
- Diseases or functions annotation: Learning [1]: Activated
- Diseases or functions annotation: Microtubule dynamics [1]: Activated
- Diseases or functions annotation: Migration of cells [1]: Activated
- Diseases or functions annotation: Morphogenesis of neurons [1]: Activated
- Diseases or functions annotation: Neurotransmission [1]: Activated
- Diseases or functions annotation: Non-hematological solid tumor [1]: Inhibited
- Diseases or functions annotation: Non-melanoma solid tumor [1]: Inhibited
- Diseases or functions annotation: Nonhematologic malignant neoplasm [1]: Inhibited
- Diseases or functions annotation: Organization of cytoplasm [1]: Activated
- Diseases or functions annotation: Organization of cytoskeleton [1]: Activated
- Diseases or functions annotation: Quantity of Ca^2+ [1]: Activated
- Diseases or functions annotation: Quantity of carbohydrate [1]: Inhibited
- Diseases or functions annotation: Quantity of cells [1]: Activated
- Diseases or functions annotation: Size of body [1]: Activated
- Diseases or functions annotation: Transport of ion [1]: Activated
- Diseases or functions annotation: Transport of metal [1]: Activated
- Diseases or functions annotation: Transport of molecule [1]: Activated
- Diseases or functions annotation: Tumorigenesis of tissue [1]: Inhibited
- Ingenuity canonical pathway: 3-phosphoinositide Degradation [2]: Activated
- Ingenuity canonical pathway: Acute Phase Response Signaling [2]: Inhibited
- Ingenuity canonical pathway: Adrenomedullin signaling pathway [2]: Inhibited
- Ingenuity canonical pathway: B Cell Receptor Signaling [2]: Inhibited
- Ingenuity canonical pathway: Ephrin Receptor Signaling [2]: Activated
- Ingenuity canonical pathway: Fc Epsilon RI Signaling [2]: Inhibited
- Ingenuity canonical pathway: G Beta Gamma Signaling [2]: Activated
- Ingenuity canonical pathway: NF-κB Signaling [2]: Activated
- Ingenuity canonical pathway: Opioid Signaling Pathway [2]: Activated
- Ingenuity canonical pathway: Role of NFAT in Cardiac Hypertrophy [2]: Activated
- Ingenuity canonical pathway: Role of NFAT in Regulation of the Immune Response [2]: Activated
- Ingenuity canonical pathway: Signaling by Rho Family GTPases [2]: Activated
- Ingenuity canonical pathway: Superpathway of Inositol Phosphate Compounds [2]: Activated
- Ingenuity canonical pathway: Synaptic Long Term Depression [2]: Activated
- z score: Abdominal cancer [2]: −2.015
- z score: Abdominal neoplasm [2]: −1.116
- z score: Adenocarcinoma [2]: −0.944
- z score: Branching of cells [2]: 0.397
- z score: Carcinoma [2]: −0.358
- z score: Cell movement [2]: 0.154
- z score: Cell-cell contact [2]: 1.504
- z score: Concentration of hormone [2]: 0.825
- z score: Concentration of lipid [2]: −0.204
- z score: Dendritic growth/branching [2]: −0.169
- z score: Development of connective tissue cells [2]: −0.005
- z score: Development of gap junctions [2]: 0.849
- z score: Development of neurons [2]: 0.688
- z score: Developmental process of synapse [2]: 0.849
- z score: Differentiation of bone cells [2]: −0.237
- z score: Differentiation of connective tissue cells [2]: −0.011
- z score: Digestive organ tumor [2]: −1.481
- z score: Digestive system cancer [2]: −1.513
- z score: Epithelial neoplasm [2]: −0.999
- z score: Extracranial solid tumor [2]: 0.529
- z score: Formation of cellular protrusions [2]: 1.183
- z score: Formation of intercellular junctions [2]: 0.391
- z score: Gastrointestinal tumor [2]: −1.284
- z score: Hematologic cancer [2]: −2.216
- z score: Hematopoietic neoplasm [2]: −2.027
- z score: Learning [2]: 0.469
- z score: Microtubule dynamics [2]: 1.962
- z score: Migration of cells [2]: 0.271
- z score: Morphogenesis of neurons [2]: 0.205
- z score: Neurotransmission [2]: 1.214
- z score: Non-hematologic malignant neoplasm [2]: −0.223
- z score: Non-hematological solid tumor [2]: −0.913
- z score: Non-melanoma solid tumor [2]: −1.478
- z score: Obesity [2]: 2.18
- z score: Organization of cytoplasm [2]: 1.922
- z score: Organization of cytoskeleton [2]: 1.922
- z score: Quantity of carbohydrate [2]: −0.017
- z score: Quantity of cells [2]: 0.493
- z score: Seizure disorder [2]: 1.376
- z score: Size of body [2]: 0.67
- z score: Skin lesion [2]: 0.532
- z score: Transport of ion [2]: 1.109
- z score: Transport of metal [2]: 1
- z score: Transport of molecule [2]: 1.143
- z score: Tumorigenesis of tissue [2]: −1.333
- Ingenuity canonical pathway 3-phosphoinositide Degradation, z score [3]: 2
- Ingenuity canonical pathway Acute Phase Response Signaling, z score [3]: −0.447
- Ingenuity canonical pathway Adrenomedullin signaling pathway, z score [3]: −0.378
- Ingenuity canonical pathway B Cell Receptor Signaling, z score [3]: −0.447
- Ingenuity canonical pathway Ephrin Receptor Signaling, z score [3]: 2.236
- Ingenuity canonical pathway FLT3 Signaling in Hematopoietic Progenitor Cells, z score [3]: *
- Ingenuity canonical pathway Fc Epsilon RI Signaling, z score [3]: −1
- Ingenuity canonical pathway G Beta Gamma Signaling, z score [3]: 2.236
- Ingenuity canonical pathway IL-1 Signaling, z score [3]: *
- Ingenuity canonical pathway IL-6 Signaling, z score [3]: *
- Ingenuity canonical pathway NF-κB Signaling, z score [3]: 0.447
- Ingenuity canonical pathway Neuropathic Pain Signaling In Dorsal Horn Neurons, z score [3]: *
- Ingenuity canonical pathway Opioid Signaling Pathway, z score [3]: 0.816
- Ingenuity canonical pathway Role of NFAT in Cardiac Hypertrophy, z score [3]: 0.447
- Ingenuity canonical pathway Role of NFAT in Regulation of the Immune Response, z score [3]: 2.236
- Ingenuity canonical pathway Signaling by Rho Family GTPases, z score [3]: 1
- Ingenuity canonical pathway Superpathway of Inositol Phosphate Compounds, z score [3]: 2
- Ingenuity canonical pathway Synaptic Long Term Depression, z score [3]: 1.342
- effect of TBI on molecular processes and diseases (2 days): mostly abolished
- effect of TBI on molecular processes and diseases (7 days): mostly abolished
- TBI-induced alterations in neurodegeneration and scarring-related canonical pathways (2 days): counteracted
- TBI-induced alterations in neurodegeneration and scarring-related canonical pathways (7 days): counteracted
